Tests used:
CDK2-cycline E = CDK2-cycline E (Homo sapiens, UniProt P24941); assay: Kinase assay (radioactive phosphate incorporation), CDK2-cyclin E; type: biochemical; conditions: read-out: Kinase Inhibition pIC50 CDK2-cycline E (converted)
Procedure, shortened: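 Inhibition measured as 32P transfer from ATP (100 μM, 15 mM MgCl2) onto peptide substrates at 30° C. Each assay used 2-4 μg active recombinant enzyme in pH 7.4 buffer. Reactions stopped on ice, filtered, acid-washed and counted; compounds diluted into 10% DMSO in assay buffer.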

Aurora A kinase = target: T1, Aurora A kinase (Homo sapiens, UniProt O14965); assay: Aurora-A (human) kinase assay (Kemptide substrate); type: biochemical; conditions: pIC50 is -log(IC50, M); 15 μM ATP; read-out: Kinase Inhibition pIC50 Aurora A kinase (converted)
T1 construct: purchased
T1 sequence (O14965 1-403): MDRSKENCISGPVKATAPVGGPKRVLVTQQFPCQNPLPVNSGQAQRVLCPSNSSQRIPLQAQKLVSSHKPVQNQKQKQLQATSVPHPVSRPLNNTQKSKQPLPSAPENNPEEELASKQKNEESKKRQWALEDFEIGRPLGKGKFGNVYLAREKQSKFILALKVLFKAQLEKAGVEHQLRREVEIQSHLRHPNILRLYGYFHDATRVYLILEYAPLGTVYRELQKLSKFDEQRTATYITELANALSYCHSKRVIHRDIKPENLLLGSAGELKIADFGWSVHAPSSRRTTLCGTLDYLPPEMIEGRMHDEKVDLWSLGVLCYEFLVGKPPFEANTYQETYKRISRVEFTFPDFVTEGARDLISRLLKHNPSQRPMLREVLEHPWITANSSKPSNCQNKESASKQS
Procedure, shortened: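 Kemptide (LRRASLG, 200 μM) phosphorylation by 5-10 ng commercial aurora-A measured as [γ-33P] incorporation at 15 μM ATP with 10 mM Mg acetate, pH 7.0 MOPS buffer. Reaction ran 40 min at room temperature; acid-stopped, captured on P81 filters, scintillation read.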

Row | IC50 (CDK2-cycline E) | melting point | IC50 (Aurora A kinase) | SMILES
1 | 398 nM | 183 to 184 °C |  | Cc1nc(C)c(-c2ccnc(Nc3cccc(CN)c3)n2)s1 [Compound 90, (3-Aminomethyl-phenyl)-[4-(2,4-dimethyl-thiazol-5-yl)-pyrimidin-2-yl]-amine]
2 |  | 213 to 214 °C | 2510 nM | CC(=O)NCc1cccc(Nc2nccc(-c3sc(N(C)c4cc(Cl)cc(Cl)c4)nc3C)n2)c1 [Compound 125, N-[3-(4-{2-[(3,5-Dichloro-phenyl)-methyl-amino]-4-methyl-thiazol-5-yl}-pyrimidin-2-ylamino)-benzyl]-acetamide]
3 |  | 276 to 278 °C | 251 nM | Cc1nc(-c2cccnc2)sc1-c1ccnc(Nc2cc(Cl)c(N3CCOCC3)c(Cl)c2)n1 [Compound 126, (3,5-Dichloro-4-morpholin-4-yl-phenyl)-[4-(4-methyl-2-pyridin-3-yl-thiazol-5-yl)-pyrimidin-2-yl]-amine]
4 |  | 224 to 225 °C | 100 nM | Cc1nc(N(C)c2cc(Cl)cc(Cl)c2)sc1-c1ccnc(Nc2ccc(N3CCOCC3)c(Cl)c2)n1 [Compound 128, (3-Chloro-4-morpholin-4-yl-phenyl)-(4-{2-[(3,5-dichloro-phenyl)-methyl-amino]-4-methyl-thiazol-5-yl}-pyrimidin-2-yl)-amine]
5 | 794 nM | 223 to 225 °C | 158 nM | CC(=O)NCc1cccc(Nc2nccc(-c3sc(-c4cccs4)nc3C)n2)c1 [Compound 130, N-{3-[4-(4-Methyl-2-thiophen-2-yl-thiazol-5-yl)-pyrimidin-2-ylamino]-benzyl}-acetamide]
6 |  | 262 to 263 °C | 1260 nM | Cc1nc(-c2nc(C)c(-c3ccnc(Nc4ccc(N5CCOCC5)cc4)n3)s2)cs1 [Compound 135, [4-(4,2′-Dimethyl-[2,4′]bithiazolyl-5-yl)-pyrimidin-2-yl]-(4-morpholin-4-yl-phenyl)-amine]
7 |  | 250 to 252 °C | 316 nM | CC(=O)N1CCN(c2ccc(Nc3nccc(-c4sc(-c5ccc(N6CCOCC6)cc5)nc4C)n3)cc2)CC1 [Compound 148, 1-[4-(4-{4-[4-Methyl-2-(4-morpholin-4-yl-phenyl)-thiazol-5-yl]-pyrimidin-2-ylamino}-phenyl)-piperazin-1-yl]-ethanone]
8 | 251 nM | 224 to 226 °C | 25.1 nM | CCNc1nc(C)c(-c2ccnc(Nc3ccc(N4CCOCC4)c(OC)c3)n2)s1 [Compound 157, [4-(2-Ethylamino-4-methyl-thiazol-5-yl)-pyrimidin-2-yl]-(3-methoxy-4-morpholin-4-yl-phenyl)-amine]
9 | 1000 nM | 226 to 228 °C | 200 nM | Cc1nc(NCCc2ccccc2)sc1-c1ccnc(Nc2ccc(N3CCOCC3)cc2)n1 [Compound 158, [4-(4-Methyl-2-phenethylamino-thiazol-5-yl)-pyrimidin-2-yl]-(4-morpholin-4-yl-phenyl)-amine]
10 |  | 201 to 202 °C | 794 nM | COc1cc(Nc2nccc(-c3sc(NCCc4ccccc4)nc3C)n2)cc(OC)c1 [Compound 159, (3,5-Dimethoxy-phenyl)-[4-(4-methyl-2-phenethylamino-thiazol-5-yl)-pyrimidin-2-yl]-amine]
11 |  | 235 to 237 °C | 794 nM | CCNc1nc(C)c(-c2ccnc(Nc3cc(OC)cc(OC)c3)n2)s1 [Compound 160, (3,5-Dimethoxy-phenyl)-[4-(2-ethylamino-4-methyl-thiazol-5-yl)-pyrimidin-2-yl]-amine]
12 |  | 245 to 246 °C | 251 nM | CC(=O)N1CCN(c2ccc(Nc3nccc(-c4sc(Nc5ccccc5)nc4C)n3)cc2)CC1 [Compound 172, 1-(4-{4-[4-(4-Methyl-2-phenylamino-thiazol-5-yl)-pyrimidin-2-ylamino]-phenyl}-piperazin-1-yl)-ethanone]
13 |  | 227 to 229 °C | 6310 nM | Cc1nc(Nc2ccccc2)sc1-c1ccnc(Nc2ccc(N3CCN(Cc4ccccc4)CC3)cc2)n1 [Compound 176, [4-(4-Benzyl-piperazin-1-yl)-phenyl]-[4-(4-methyl-2-phenylamino-thiazol-5-yl)-pyrimidin-2-yl]-amine]
14 |  | 187 to 188 °C | 2000 nM | Cc1nc(-c2cccnc2)sc1-c1ccnc(Nc2ccc3c(c2)OCO3)n1 [Compound 177, Benzo[1,3]dioxol-5-yl-[4-(4-methyl-2-pyridin-3-yl-thiazol-5-yl)-pyrimidin-2-yl]-amine]
15 | 200 nM | 194 to 195 °C | 158 nM | CCNc1nc(C)c(-c2ccnc(Nc3ccc4c(c3)OCO4)n2)s1 [Compound 178, Benzo[1,3]dioxol-5-yl-[4-(2-ethylamino-4-methyl-thiazol-5-yl)-pyrimidin-2-yl]-amine]
16 | 100 nM | 211 to 213 °C | 79.4 nM | Cc1nc(N)sc1-c1ccnc(Nc2ccc3c(c2)OCO3)n1 [Compound 179, [4-(2-Amino-4-methyl-thiazol-5-yl)-pyrimidin-2-yl]-benzo[1,3]dioxol-5-yl-amine]
17 |  | 212 to 214 °C | 2000 nM | Cc1nc(-c2cccnc2)sc1-c1ccnc(Nc2ccc(N3CCCC3)cc2)n1 [Compound 198, [4-(4-Methyl-2-pyridin-3-yl-thiazol-5-yl)-pyrimidin-2-yl]-(4-pyrrolidin-1-yl-phenyl)-amine]
18 |  | 192 to 193 °C | 631 nM | Cc1nc(C)c(-c2ccnc(Nc3ccc(N4CCCC4)cc3)n2)s1 [Compound 199, [4-(2,4-Dimethyl-thiazol-5-yl)-pyrimidin-2-yl]-(4-pyrrolidin-1-yl-phenyl)-amine]
19 | 5010 nM | 173 to 174 °C | 158 nM | Cc1nc(C)c(-c2ccnc(Nc3ccc(N4CCSCC4)cc3)n2)s1 [Compound 202, [4-(2,4-Dimethyl-thiazol-5-yl)-pyrimidin-2-yl]-(4-thiomorpholin-4-yl-phenyl)-amine]
20 |  | 191 to 193 °C | 501 nM | Cc1nc(-c2cccnc2)sc1-c1ccnc(Nc2ccc(N3CCSCC3)cc2)n1 [Compound 204, [4-(4-Methyl-2-pyridin-3-yl-thiazol-5-yl)-pyrimidin-2-yl]-(4-thiomorpholin-4-yl-phenyl)-amine]
21 |  | 159 to 160 °C | 398 nM | Cc1nc(C)c(-c2ccnc(Nc3ccc(N4CCCCC4)c(C)c3)n2)s1 [Compound 205, [4-(2,4-Dimethyl-thiazol-5-yl)-pyrimidin-2-yl]-(3-methyl-4-piperidin-1-yl-phenyl)-amine]
22 |  | 213 to 214 °C | 501 nM | CCNc1nc(C)c(-c2ccnc(Nc3ccc(N4CCCCC4)c(C)c3)n2)s1 [Compound 207, [4-(2-Ethylamino-4-methyl-thiazol-5-yl)-pyrimidin-2-yl]-(3-methyl-4-piperidin-1-yl-phenyl)-amine]
23 |  | 200 to 201 °C | 1000 nM | Cc1cc(Nc2nccc(-c3sc(-c4cccnc4)nc3C)n2)ccc1N1CCCCC1 [Compound 208, (3-Methyl-4-piperidin-1-yl-phenyl)-[4-(4-methyl-2-pyridin-3-yl-thiazol-5-yl)-pyrimidin-2-yl]-amine]
